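Exposure lasted 48 hours, with cells grown in 96-well plates and compounds tested at five concentrations. The concentration for 50% growth inhibition is given as GI50.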 Activity calls are given as the source filed them. Rule as the data show it: active = GI50 up to about 1.1 µM and inactive = higher. Numbered stars: 1 amine (or outer) side, 2 acyl side, 3 side chain; on linkers, the order of the positions; unused ones are H or OH. Bridge positions count the residues as written; N and C are the ends. Square brackets hold non-standard residues; d marks the D form. Peptide text beside a SMILES is read from it. I, II: the chains in the order shown. Actinocin(9to1) = Cc1c2oc3c(C)ccc(C(=O)[*:1])c3nc-2c(C(=O)[*:2])c(N)c1=O; X48 = O=C1CC(C(=O)[*:2])N([*:1])C1; NMeV = CN[CH](C(=O)O)C(C)C; Sar = CNCC(=O)O
Assays:
Assay in all cases: growth of human tumour cells (NCI), 48 h
786-0 = system: 786-0
A498 = system: A498
A549 = system: A549
ACHN = system: ACHN
CCRF-CEM = system: CCRF-CEM
COLO 205 = system: COLO 205
DU-145 = system: DU-145
EKVX = system: EKVX
HCC 2998 = system: HCC 2998
HCT-116 = system: HCT-116
HCT-15 = system: HCT-15
HL-60 = system: HL-60
HOP-62 = system: HOP-62
HOP-92 = system: HOP-92
HT-29 = system: HT-29
Hs-578T = system: Hs-578T
K562 = system: K562
KM12 = system: KM12
LOX IMVI = system: LOX IMVI
M14 = system: M14
MCF7 = system: MCF7
MDA-MB-231 = system: MDA-MB-231
MDA-MB-435 = system: MDA-MB-435
MDA-N = system: MDA-N
MOLT-4 = system: MOLT-4
Malme-3M = system: Malme-3M
NCI-H226 = system: NCI-H226
NCI-H23 = system: NCI-H23
NCI-H460 = system: NCI-H460
NCI/ADR-RES = system: NCI/ADR-RES
OVCAR-3 = system: OVCAR-3
OVCAR-4 = system: OVCAR-4
OVCAR-5 = system: OVCAR-5
OVCAR-8 = system: OVCAR-8
PC-3 = system: PC-3
RPMI-8226 = system: RPMI-8226
RXF 393 = system: RXF 393
SF-268 = system: SF-268
SF-295 = system: SF-295
SF-539 = system: SF-539
SK-MEL-28 = system: SK-MEL-28
SK-MEL-2 = system: SK-MEL-2
SK-MEL-5 = system: SK-MEL-5
SK-OV-3 = system: SK-OV-3
SN12C = system: SN12C
SNB-19 = system: SNB-19
SR = system: SR
SW-620 = system: SW-620
TK-10 = system: TK-10
U-251 = system: U-251
UACC-257 = system: UACC-257
UACC-62 = system: UACC-62
UO-31 = system: UO-31
CAKI-1 = system: CAKI-1
IGROV-1 = system: IGROV-1
T47D = system: T47D
NCI-H522 = system: NCI-H522
SNB-75 = system: SNB-75

Cc1nc2c(O)cc3c4c([nH]c3c2nc1C)C(=O)CCC4
GI50 (786-0): 5.85 µM (inactive)
GI50 (A498): 19.5 µM (inactive)
GI50 (A549): 2.4 µM (inactive)
GI50 (ACHN): 5.45 µM (inactive)
GI50 (CCRF-CEM): 4.07 µM (inactive)
GI50 (COLO 205): 2.26 µM (inactive)
GI50 (DU-145): 1.99 µM (inactive)
GI50 (EKVX): 6.37 µM (inactive)
GI50 (HCC 2998): 1.71 µM (inactive)
GI50 (HCT-116): 3.01 µM (inactive)
GI50 (HCT-15): 11.9 µM
GI50 (HL-60): 3.72 µM (inactive)
GI50 (HOP-62): 5.89 µM (inactive)
GI50 (HOP-92): 11.2 µM (inactive)
GI50 (HT-29): 1.52 µM (inactive)
GI50 (Hs-578T): 2.62 µM (inactive)
GI50 (K562): 5.06 µM (inactive)
GI50 (KM12): 3.69 µM (inactive)
GI50 (LOX IMVI): 2.29 µM (inactive)
GI50 (M14): 3.35 µM (inactive)
GI50 (MCF7): 0.875 µM (active)
GI50 (MDA-MB-231): 7.45 µM (inactive)
GI50 (MDA-MB-435): 0.541 µM (active)
GI50 (MDA-N): 0.869 µM (active)
GI50 (MOLT-4): 4.91 µM (inactive)
GI50 (Malme-3M): 8.93 µM (inactive)
GI50 (NCI-H226): 25.1 µM (inactive)
GI50 (NCI-H23): 6.58 µM (inactive)
GI50 (NCI-H460): 3.51 µM (inactive)
GI50 (NCI/ADR-RES): 34.6 µM (inactive)
GI50 (OVCAR-3): 2.61 µM (inactive)
GI50 (OVCAR-4): 2.87 µM (inactive)
GI50 (OVCAR-5): 4.24 µM (inactive)
GI50 (OVCAR-8): 2.65 µM (inactive)
GI50 (PC-3): 3.61 µM (inactive)
GI50 (RPMI-8226): 2.24 µM (inactive)
GI50 (RXF 393): 0.162 µM (active)
GI50 (SF-268): 2.96 µM (inactive)
GI50 (SF-295): 5.08 µM (inactive)
GI50 (SF-539): 2.85 µM (inactive)
GI50 (SK-MEL-28): 2.8 µM (inactive)
GI50 (SK-MEL-2): 2.59 µM (inactive)
GI50 (SK-MEL-5): 4.76 µM (inactive)
GI50 (SK-OV-3): 3.76 µM (inactive)
GI50 (SN12C): 4.49 µM (inactive)
GI50 (SNB-19): 9.42 µM (inactive)
GI50 (SR): 2.36 µM (inactive)
GI50 (SW-620): 4.22 µM (inactive)
GI50 (TK-10): 3.4 µM (inactive)
GI50 (U-251): 2.16 µM (inactive)
GI50 (UACC-257): 95.1 µM (inactive)
GI50 (UACC-62): 3.66 µM (inactive)
GI50 (UO-31): 14.3 µM (inactive)

Cc1c2oc3c(C)ccc(C(=O)NC4C(=O)NC(C(C)C)C(=O)N5CC(=O)CC5C(=O)N(C)CC(=O)N(C)C(C(C)C)C(=O)OC4C)c3nc-2c(C(=O)NC2C(=O)NC(C(C)C)C(=O)N3CC(=O)CC3C(=O)N(C)CC(=O)N(C)C(C(C)C)C(=O)OC2C)c(N)c1=O (centres undefined) (I: TV[X48][Sar][NMeV] / II: TV[X48][Sar][NMeV]; ester I:1-I:C, II:1-II:C; linker I:N-II:N via Actinocin(9to1); configuration not given here)
GI50 (786-0): > 1 µM (active)
GI50 (A498): > 1 µM (active)
GI50 (A549): 0.253 µM (active)
GI50 (ACHN): > 1 µM (active)
GI50 (CAKI-1): > 1 µM (active)
GI50 (CCRF-CEM): > 1 µM (active)
GI50 (COLO 205): > 1 µM (active)
GI50 (DU-145): > 1 µM (active)
GI50 (EKVX): > 1 µM (active)
GI50 (HCC 2998): > 1 µM (active)
GI50 (HCT-116): > 1 µM (active)
GI50 (HCT-15): > 1 µM
GI50 (HL-60): > 1 µM (active)
GI50 (HOP-62): > 1 µM (active)
GI50 (HOP-92): > 1 µM (active)
GI50 (HT-29): > 1 µM (active)
GI50 (IGROV-1): > 1 µM (active)
GI50 (K562): > 1 µM (active)
GI50 (LOX IMVI): > 1 µM (active)
GI50 (M14): > 1 µM (active)
GI50 (MCF7): 0.0277 µM (active)
GI50 (MDA-MB-231): > 1 µM (active)
GI50 (MDA-MB-435): > 1 µM (active)
GI50 (MDA-N): > 1 µM (active)
GI50 (MOLT-4): > 1 µM (active)
GI50 (Malme-3M): > 1 µM (active)
GI50 (NCI-H226): > 1 µM (active)
GI50 (NCI-H23): > 1 µM (active)
GI50 (NCI-H460): > 1 µM (active)
GI50 (NCI/ADR-RES): > 1 µM (active)
GI50 (OVCAR-3): > 1 µM (active)
GI50 (OVCAR-4): > 1 µM (active)
GI50 (OVCAR-5): > 1 µM (active)
GI50 (OVCAR-8): > 1 µM (active)
GI50 (PC-3): > 1 µM (active)
GI50 (RPMI-8226): > 1 µM (active)
GI50 (RXF 393): 0.476 µM (active)
GI50 (SF-295): > 1 µM (active)
GI50 (SF-539): > 1 µM (active)
GI50 (SK-MEL-28): > 1 µM (active)
GI50 (SK-MEL-2): > 1 µM (active)
GI50 (SK-MEL-5): > 1 µM (active)
GI50 (SK-OV-3): > 1 µM (active)
GI50 (SN12C): > 1 µM (active)
GI50 (SNB-19): > 1 µM (active)
GI50 (SR): 0.948 µM (active)
GI50 (SW-620): > 1 µM (active)
GI50 (T47D): > 1 µM (active)
GI50 (TK-10): > 1 µM (active)
GI50 (U-251): > 1 µM (active)
GI50 (UACC-257): > 1 µM (active)
GI50 (UO-31): > 1 µM (active)

C=CC1CN2CCC1CC2C(O)c1ccnc2ccc(OC)cc12 (centres undefined)
GI50 (NCI-H23): 89.1 µM (inactive)

CCOC(=O)C(NC(=O)CC(C)C)(Nc1ccc(C(F)(F)F)cc1)C(F)(F)F (centres undefined)
GI50 (786-0): 82.4 µM (inactive)
GI50 (A549): > 100 µM (inactive)
GI50 (ACHN): 14.5 µM (inactive)
GI50 (CCRF-CEM): 35.6 µM (inactive)
GI50 (DU-145): 89.9 µM (inactive)
GI50 (EKVX): > 100 µM (inactive)
GI50 (HCC 2998): 32.8 µM (inactive)
GI50 (HCT-116): 17.2 µM (inactive)
GI50 (HCT-15): 29 µM
GI50 (HL-60): 21 µM (inactive)
GI50 (HOP-62): 36.1 µM (inactive)
GI50 (HOP-92): 30.3 µM (inactive)
GI50 (HT-29): 21 µM (inactive)
GI50 (Hs-578T): 25.5 µM (inactive)
GI50 (IGROV-1): 22.2 µM (inactive)
GI50 (K562): 23.9 µM (inactive)
GI50 (KM12): 14.7 µM (inactive)
GI50 (LOX IMVI): 84.5 µM (inactive)
GI50 (M14): > 100 µM (inactive)
GI50 (MCF7): > 100 µM (inactive)
GI50 (MDA-MB-435): > 100 µM (inactive)
GI50 (MDA-N): 32.6 µM (inactive)
GI50 (MOLT-4): 23 µM (inactive)
GI50 (Malme-3M): 96.4 µM (inactive)
GI50 (NCI-H226): > 100 µM (inactive)
GI50 (NCI-H23): 76.4 µM (inactive)
GI50 (NCI-H460): 26.4 µM (inactive)
GI50 (NCI-H522): 16.7 µM (inactive)
GI50 (NCI/ADR-RES): 22.6 µM (inactive)
GI50 (OVCAR-3): 13.4 µM (inactive)
GI50 (OVCAR-4): 35.4 µM (inactive)
GI50 (OVCAR-5): > 100 µM (inactive)
GI50 (OVCAR-8): 27.1 µM (inactive)
GI50 (PC-3): 20 µM (inactive)
GI50 (RPMI-8226): 16.7 µM (inactive)
GI50 (RXF 393): 35.4 µM (inactive)
GI50 (SF-268): > 100 µM (inactive)
GI50 (SF-295): > 100 µM (inactive)
GI50 (SF-539): > 100 µM (inactive)
GI50 (SK-MEL-28): > 100 µM (inactive)
GI50 (SK-MEL-2): 15.7 µM (inactive)
GI50 (SK-MEL-5): 82.8 µM (inactive)
GI50 (SK-OV-3): > 100 µM (inactive)
GI50 (SN12C): > 100 µM (inactive)
GI50 (SNB-19): > 100 µM (inactive)
GI50 (SNB-75): 6.31 µM (inactive)
GI50 (SR): 23.4 µM (inactive)
GI50 (SW-620): 57.8 µM (inactive)
GI50 (T47D): 18.4 µM (inactive)
GI50 (TK-10): 40.5 µM (inactive)
GI50 (U-251): 28 µM (inactive)
GI50 (UACC-257): 44.3 µM (inactive)
GI50 (UO-31): 61.7 µM (inactive)

From ChEMBL document CHEMBL1201862, “PubChem BioAssay data set” (2004)
